# From ChEMBL document CHEMBL1201861, “Genomics of Drug Sensitity in Cancer screening data, Wellcome Trust Sanger Institute”
# Tests used:
# Assay in all cases: cells
# HOP-62 = type: functional, cell-based, Homo sapiens; details: Homo sapiens, HOP-62;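 further: cell growth inhibition determined with a viability assay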
# Description: SANGER: Inhibition of human HOP-62 cell growth in a cell viability assay.
# MV4-11 = type: functional, cell-based, Homo sapiens, MV-4-11; details: Homo sapiens, MV4-11;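 further: cell viability readout measuring growth inhibition of human MV-4-11 cells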
# Description: SANGER: Inhibition of human MV-4-11 cell growth in a cell viability assay.
# HEL = type: functional, cell-based, Homo sapiens; details: Homo sapiens, HEL;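 further: growth inhibition of HEL cells, read out with a cell viability assay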
# Description: SANGER: Inhibition of human HEL cell growth in a cell viability assay.
# RPMI-8866 = type: functional, cell-based, Homo sapiens; details: Homo sapiens, RPMI-8866
# Description: SANGER: Inhibition of human RPMI-8866 cell growth in a cell viability assay.
# NEC8 = type: functional, cell-based, Homo sapiens; details: Homo sapiens, NEC8;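 further: growth inhibition of human NEC8 cells, read out by a cell viability assay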
# Description: SANGER: Inhibition of human NEC8 cell growth in a cell viability assay.
# NMC-G1 = type: functional, cell-based, Homo sapiens; details: Homo sapiens, NMC-G1;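 further: growth inhibition of the NMC-G1 cell line, measured with a cell viability read-out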
# Description: SANGER: Inhibition of human NMC-G1 cell growth in a cell viability assay.
# EOL1 = type: functional, cell-based, Homo sapiens; details: Homo sapiens, EOL1;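 further: growth inhibition of EoL-1 cells, read out by a cell viability assay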
# Description: SANGER: Inhibition of human EoL-1-cell cell growth in a cell viability assay.
# CCRF-CEM = type: functional, cell-based, Homo sapiens; details: Homo sapiens, CCRF-CEM;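 further: inhibition of CCRF-CEM cell growth, measured by a cell viability assay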
# Description: SANGER: Inhibition of human CCRF-CEM cell growth in a cell viability assay.
# NCI-H1355 = type: functional, cell-based, Homo sapiens; details: Homo sapiens, NCI-H1355;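 further: growth inhibition of human NCI-H1355 cells, read out by a cell viability assay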
# Description: SANGER: Inhibition of human NCI-H1355 cell growth in a cell viability assay.
# JVM-3 = type: functional, cell-based, Homo sapiens; details: Homo sapiens, JVM-3;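 further: growth inhibition of human JVM-3 cells, read out with a cell viability assay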
# Description: SANGER: Inhibition of human JVM-3 cell growth in a cell viability assay.
# NCI-H69 = type: functional, cell-based, Homo sapiens; details: Homo sapiens, NCI-H69;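 further: growth inhibition of the cell line, read out with a cell viability assay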
# Description: SANGER: Inhibition of human NCI-H69 cell growth in a cell viability assay.
# ES1 = type: functional, cell-based, Homo sapiens; details: Homo sapiens, ES1;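 further: growth inhibition of ES1 cells, read out with a cell viability assay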
# Description: SANGER: Inhibition of human ES1 cell growth in a cell viability assay.
# HCE-4 = type: functional, cell-based; details: Homo sapiens;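 further: cell viability assay measuring inhibition of growth in the human HCE-4 cell line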
# Description: SANGER: Inhibition of human HCE-4 cell growth in a cell viability assay.
# RPMI-8226 = type: functional, cell-based, Homo sapiens; details: Homo sapiens, RPMI-8226
# Description: SANGER: Inhibition of human RPMI-8226 cell growth in a cell viability assay.
# BT-474 = type: functional, cell-based, Homo sapiens; details: Homo sapiens, BT-474
# Description: SANGER: Inhibition of human BT-474 cell growth in a cell viability assay.
# LU-139 = type: functional, cell-based, Homo sapiens; details: Homo sapiens, LU-139
# Description: SANGER: Inhibition of human LU-139 cell growth in a cell viability assay.
# TE-8 = type: functional, cell-based, Homo sapiens; details: Homo sapiens, TE-8;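 further: growth inhibition of TE-8 cells, measured with a cell viability readout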
# Description: SANGER: Inhibition of human TE-8 cell growth in a cell viability assay.
# SK-LMS-1 = type: functional, cell-based, Homo sapiens; details: Homo sapiens, SK-LMS-1;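 further: growth inhibition of human SK-LMS-1 cells, read out with a cell viability assay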
# Description: SANGER: Inhibition of human SK-LMS-1 cell growth in a cell viability assay.
# TGW = type: functional, cell-based, Homo sapiens; details: Homo sapiens, TGW;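 further: growth inhibition of human TGW cells, read out with a cell viability assay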
# Description: SANGER: Inhibition of human TGW cell growth in a cell viability assay.
# D-247MG = type: functional, cell-based; details: Homo sapiens
# Description: SANGER: Inhibition of human D-247MG cell growth in a cell viability assay.
# TE-9 = type: functional, cell-based, Homo sapiens; details: Homo sapiens, TE-9;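 further: cell growth inhibition, measured with a cell viability readout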
# Description: SANGER: Inhibition of human TE-9 cell growth in a cell viability assay.
# COLO-320-HSR = type: functional, cell-based, Homo sapiens; details: Homo sapiens, COLO-320-HSR;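 further: growth inhibition of COLO-320-HSR cells, determined with a cell viability assay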
# Description: SANGER: Inhibition of human COLO-320-HSR cell growth in a cell viability assay.
# DSH1 = type: functional, cell-based; details: Homo sapiens;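 further: growth inhibition of human DSH1 cells, measured with a cell viability readout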
# Description: SANGER: Inhibition of human DSH1 cell growth in a cell viability assay.
# NB13 = type: functional, cell-based, Homo sapiens; details: Homo sapiens, NB13;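 further: cell viability readout measuring growth inhibition of human NB13 cells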
# Description: SANGER: Inhibition of human NB13 cell growth in a cell viability assay.
# NCI-H1648 = type: functional, cell-based, Homo sapiens; details: Homo sapiens, NCI-H1648;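 further: cell viability assay measuring inhibition of NCI-H1648 cell growth, from the Sanger screening data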
# Description: SANGER: Inhibition of human NCI-H1648 cell growth in a cell viability assay.
# LS-1034 = type: functional, cell-based, Homo sapiens; details: Homo sapiens, LS-1034
# Description: SANGER: Inhibition of human LS-1034 cell growth in a cell viability assay.
# LB2518-MEL = type: functional, cell-based; details: Homo sapiens;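 further: growth inhibition of human LB2518-MEL cells, measured with a cell viability assay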
# Description: SANGER: Inhibition of human LB2518-MEL cell growth in a cell viability assay.
# BE-13 = type: functional, cell-based, Homo sapiens; details: Homo sapiens, BE-13;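 further: growth inhibition of human BE-13 cells, measured with a cell viability assay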
# Description: SANGER: Inhibition of human BE-13 cell growth in a cell viability assay.
# OCUB-M = type: functional, cell-based; details: Homo sapiens;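 further: growth inhibition of the cancer cell line, read out through a cell viability assay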
# Description: SANGER: Inhibition of human OCUB-M cell growth in a cell viability assay.
# SK-N-FI = type: functional, cell-based, Homo sapiens; details: Homo sapiens, SK-N-FI;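 further: cell viability assay measuring growth inhibition of human SK-N-FI cells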
# Description: SANGER: Inhibition of human SK-N-FI cell growth in a cell viability assay.
# SW982 = type: functional, cell-based; details: Homo sapiens;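 further: growth inhibition of SW982 cells, read out with a cell viability assay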
# Description: SANGER: Inhibition of human SW982 cell growth in a cell viability assay.
# D283 Med = type: functional, cell-based, Homo sapiens; details: Homo sapiens, D283 Med
# Description: SANGER: Inhibition of human D-283MED cell growth in a cell viability assay.
# A3-KAW = type: functional, cell-based, Homo sapiens; details: Homo sapiens, A3-KAW;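 further: growth inhibition of human A3-KAW cells, read out with a cell viability assay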
# Description: SANGER: Inhibition of human A3-KAW cell growth in a cell viability assay.
# MZ1-PC = type: functional, cell-based, Homo sapiens; details: Homo sapiens, MZ1-PC;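 further: cell viability assay measuring growth inhibition of human MZ1-PC cells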
# Description: SANGER: Inhibition of human MZ1-PC cell growth in a cell viability assay.
# 8-MG-BA = type: functional, cell-based, Homo sapiens; details: Homo sapiens, 8-MG-BA;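 further: growth inhibition of 8-MG-BA cells, read out with a cell viability assay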
# Description: SANGER: Inhibition of human 8-MG-BA cell growth in a cell viability assay.
# NB69 = type: functional, cell-based, Homo sapiens; details: Homo sapiens, NB69;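 further: growth inhibition of NB69 cells, determined by a cell viability assay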
# Description: SANGER: Inhibition of human NB69 cell growth in a cell viability assay.
# A388 = type: functional, cell-based; details: Homo sapiens;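 further: growth inhibition of human A388 cells, read out with a cell viability assay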
# Description: SANGER: Inhibition of human A388 cell growth in a cell viability assay.
# KGN = type: functional, cell-based, Homo sapiens; details: Homo sapiens, KGN;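 further: growth inhibition of KGN cells, read out with a cell viability assay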
# Description: SANGER: Inhibition of human KGN cell growth in a cell viability assay.
# AM-38 = type: functional, cell-based, Homo sapiens; details: Homo sapiens, AM-38;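 further: growth inhibition of AM-38 cells of human origin, read out by a cell viability assay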
# Description: SANGER: Inhibition of human AM-38 cell growth in a cell viability assay.
# JAR = type: functional, cell-based, Homo sapiens; details: Homo sapiens, JAR;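 further: growth inhibition of human JAR cells determined with a cell viability assay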
# Description: SANGER: Inhibition of human JAR cell growth in a cell viability assay.
# NOMO-1 = type: functional, cell-based, Homo sapiens; details: Homo sapiens, NOMO-1;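 further: growth inhibition of human NOMO-1 cells measured by a cell viability assay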
# Description: SANGER: Inhibition of human NOMO-1 cell growth in a cell viability assay.
# SK-MEL-1 = type: functional, cell-based, Homo sapiens; details: Homo sapiens, SK-MEL-1;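 further: growth inhibition of human SK-MEL-1 cells, read out by a cell viability assay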
# Description: SANGER: Inhibition of human SK-MEL-1 cell growth in a cell viability assay.
# SF-126 = type: functional, cell-based, Homo sapiens; details: Homo sapiens, SF-126;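 further: growth inhibition of human SF126 cells, read out with a cell viability assay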
# Description: SANGER: Inhibition of human SF126 cell growth in a cell viability assay.
# SW 962 = type: functional, cell-based, Homo sapiens; details: Homo sapiens, SW 962;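 further: growth inhibition of human SW962 cells, read out by a cell viability assay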
# Description: SANGER: Inhibition of human SW962 cell growth in a cell viability assay.
# SNU-C2B = type: functional, cell-based; details: Homo sapiens;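 further: cell viability readout used to measure compound-driven suppression of SNU-C2B cell proliferation, IC50 marking half-maximal growth inhibition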
# Description: SANGER: Inhibition of human SNU-C2B cell growth in a cell viability assay.
# NTERA-2-cl-D1 = type: functional, cell-based, Homo sapiens; details: Homo sapiens, NTERA-2-cl-D1;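 further: inhibition of cell growth, measured with a cell viability assay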
# Description: SANGER: Inhibition of human NTERA-S-cl-D1 cell growth in a cell viability assay.
# SHP77 = type: functional, cell-based, Homo sapiens, SHP-77; details: Homo sapiens, SHP77;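 further: growth inhibition of human SHP-77 cells measured by a cell viability assay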
# Description: SANGER: Inhibition of human SHP-77 cell growth in a cell viability assay.
# MS-1 = type: functional, cell-based, Homo sapiens; details: Homo sapiens, MS-1
# Description: SANGER: Inhibition of human MS-1 cell growth in a cell viability assay.
# RH-1 = type: functional, cell-based, Homo sapiens; details: Homo sapiens, RH-1;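 further: growth inhibition of human RH-1 cells, read out with a cell viability assay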
# Description: SANGER: Inhibition of human RH-1 cell growth in a cell viability assay.
# SK-N-DZ = type: functional, cell-based, Homo sapiens; details: Homo sapiens, SK-N-DZ; read-out: IC50;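 further: growth inhibition of the cancer cell line, read out through a viability assay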
# Description: SANGER: Inhibition of human SK-N-DZ cell growth in a cell viability assay.
# NCI-H1299 = type: functional, cell-based; details: Homo sapiens;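 further: growth inhibition of human NCI-H1299 cells, read out by a cell viability assay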
# Description: SANGER: Inhibition of human NCI-H1299 cell growth in a cell viability assay.
smiles,measurement,setting,value
Cc1cc(N2CCOCC2)cc2[nH]c(-c3c(NC[C@@H](O)c4cccc(Cl)c4)cc[nH]c3=O)nc12,IC50,HOP-62,936 nM
same,IC50,MV4-11,206 nM
same,IC50,HEL,1900 nM
same,IC50,RPMI-8866,> 5120 nM
same,IC50,NEC8,> 5120 nM
same,IC50,NMC-G1,4610 nM
same,IC50,EOL1,1570 nM
same,IC50,CCRF-CEM,> 5120 nM
same,IC50,NCI-H1355,553 nM
same,IC50,JVM-3,> 5120 nM
same,IC50,NCI-H69,> 5120 nM
same,IC50,ES1,1620 nM
same,IC50,HCE-4,> 5120 nM
same,IC50,RPMI-8226,> 5120 nM
same,IC50,BT-474,> 5120 nM
same,IC50,LU-139,> 5120 nM
same,IC50,TE-8,506 nM
same,IC50,SK-LMS-1,4810 nM
same,IC50,TGW,683 nM
same,IC50,D-247MG,> 5120 nM
same,IC50,TE-9,2500 nM
same,IC50,COLO-320-HSR,934 nM
same,IC50,DSH1,> 5120 nM
same,IC50,NB13,> 5120 nM
same,IC50,NCI-H1648,190 nM
same,IC50,LS-1034,758 nM
same,IC50,LB2518-MEL,> 5120 nM
same,IC50,BE-13,> 5120 nM
same,IC50,OCUB-M,> 5120 nM
same,IC50,SK-N-FI,> 5120 nM
same,IC50,SW982,718 nM
same,IC50,D283 Med,> 5120 nM
same,IC50,A3-KAW,1930 nM
same,IC50,MZ1-PC,764 nM
same,IC50,8-MG-BA,3930 nM
same,IC50,NB69,293 nM
same,IC50,A388,> 5120 nM
same,IC50,KGN,1090 nM
same,IC50,AM-38,> 5120 nM
same,IC50,JAR,> 5120 nM
same,IC50,NOMO-1,> 5120 nM
same,IC50,SK-MEL-1,> 5120 nM
same,IC50,SF-126,2470 nM
same,IC50,SW 962,1200 nM
same,IC50,SNU-C2B,2710 nM
same,IC50,NTERA-2-cl-D1,257 nM
same,IC50,SHP77,> 5120 nM
same,IC50,MS-1,> 5120 nM
same,IC50,RH-1,> 5120 nM
same,IC50,SK-N-DZ,2110 nM
CC(C)C[C@H](NC(=O)[C@H](Cc1ccccc1)NC(=O)c1cnccn1)B(O)O [BORTEZOMIB],IC50,HOP-62,0.647 nM
same,IC50,MV4-11,1.82 nM
same,IC50,HEL,1.61 nM
same,IC50,RPMI-8866,> 20 nM
same,IC50,NEC8,3.35 nM
same,IC50,NMC-G1,3.68 nM
same,IC50,EOL1,18.3 nM
same,IC50,CCRF-CEM,1.13 nM
same,IC50,NCI-H1355,0.895 nM
same,IC50,JVM-3,13 nM
same,IC50,NCI-H69,1.54 nM
same,IC50,ES1,0.43 nM
same,IC50,RPMI-8226,2.35 nM
same,IC50,BT-474,> 20 nM
same,IC50,LU-139,5.13 nM
same,IC50,TE-8,1.19 nM
same,IC50,SK-LMS-1,0.854 nM
same,IC50,TGW,16.5 nM
same,IC50,D-247MG,0.413 nM
same,IC50,TE-9,0.182 nM
same,IC50,COLO-320-HSR,3.92 nM
same,IC50,DSH1,0.48 nM
same,IC50,NB13,2 nM
same,IC50,NCI-H1648,4.13 nM
same,IC50,LS-1034,> 20 nM
same,IC50,LB2518-MEL,0.425 nM
same,IC50,BE-13,1.93 nM
same,IC50,NCI-H1299,> 20 nM
same,IC50,OCUB-M,0.447 nM
same,IC50,SK-N-FI,> 20 nM
same,IC50,D283 Med,> 20 nM
same,IC50,A3-KAW,1.28 nM
same,IC50,MZ1-PC,3.54 nM
same,IC50,8-MG-BA,0.25 nM
same,IC50,NB69,2.46 nM
same,IC50,A388,0.356 nM
same,IC50,KGN,2.15 nM
same,IC50,AM-38,> 20 nM
same,IC50,JAR,16.1 nM
same,IC50,NOMO-1,4.33 nM
same,IC50,SK-MEL-1,> 20 nM
same,IC50,SF-126,0.701 nM
same,IC50,SW 962,5.21 nM
same,IC50,NTERA-2-cl-D1,0.243 nM
same,IC50,SHP77,> 20 nM
same,IC50,MS-1,> 20 nM
same,IC50,RH-1,> 20 nM
same,IC50,SK-N-DZ,3.26 nM
Nc1ccccc1NC(=O)c1ccc(CNC(=O)OCc2cccnc2)cc1 [ENTINOSTAT],IC50,HOP-62,484 nM
same,IC50,MV4-11,530 nM
same,IC50,HEL,313 nM
same,IC50,RPMI-8866,1600 nM
same,IC50,NEC8,135 nM
same,IC50,NMC-G1,404 nM
same,IC50,EOL1,> 5000 nM
same,IC50,CCRF-CEM,747 nM
same,IC50,NCI-H1355,2120 nM
same,IC50,JVM-3,> 5000 nM
same,IC50,NCI-H69,801 nM
same,IC50,ES1,113 nM
same,IC50,RPMI-8226,3140 nM
same,IC50,BT-474,1520 nM
same,IC50,LU-139,335 nM
same,IC50,TE-8,369 nM
same,IC50,SK-LMS-1,> 5000 nM
same,IC50,TGW,1080 nM
same,IC50,D-247MG,> 5000 nM
same,IC50,TE-9,1840 nM
same,IC50,COLO-320-HSR,2860 nM
same,IC50,DSH1,287 nM
same,IC50,NB13,668 nM
same,IC50,NCI-H1648,> 5000 nM
same,IC50,LS-1034,> 5000 nM
same,IC50,LB2518-MEL,933 nM
same,IC50,BE-13,497 nM
same,IC50,NCI-H1299,> 5000 nM
same,IC50,OCUB-M,1210 nM
same,IC50,SK-N-FI,3450 nM
same,IC50,D283 Med,> 5000 nM
same,IC50,A3-KAW,176 nM
same,IC50,MZ1-PC,3620 nM
same,IC50,8-MG-BA,1290 nM
same,IC50,NB69,598 nM
same,IC50,A388,1520 nM
same,IC50,KGN,2770 nM
same,IC50,AM-38,> 5000 nM
same,IC50,JAR,878 nM
same,IC50,NOMO-1,811 nM
same,IC50,SK-MEL-1,> 5000 nM
same,IC50,SF-126,2330 nM
same,IC50,SW 962,> 5000 nM
same,IC50,NTERA-2-cl-D1,201 nM
same,IC50,SHP77,4010 nM
same,IC50,MS-1,> 5000 nM
same,IC50,RH-1,> 5000 nM
same,IC50,SK-N-DZ,1250 nM
